From article PMC6015499 (Journal of medicinal chemistry, 2017)

Experiment: PAMPA permeability
Type: in vitro ADME

| SMILES | PAMPA permeability |
| --- | --- |
| Cc1ccccc1-c1nc(CN2CCC(C(=O)NCCCN3[C@H](C)CCC[C@@H]3C)CC2)c(C)o1 [7i, N-(3-(cis-2,6-Dimethylpiperidin-1-yl)propyl)-1-((5-methyl-2-(otolyl)oxazol-4-yl)methyl)piperidine-4-carboxamide] | 55.4 1×10^−6 cm/s |
| Cc1ccccc1-c1nc(CN2CCC(C(=O)NCCCN3CC(C)(C)CC(C)(C)C3)CC2)c(C)o1 [7d, 1-((5-Methyl-2-(o-tolyl)oxazol-4-yl)methyl)-N-(3-(cis-3,3,5,5-tetramethylpiperidin-1-yl)propyl)piperidine-4-carboxamide] | >1397 1×10^−6 cm/s |
| Cc1oc(-c2ccc(Cl)cc2)nc1CN1CCC(C(=O)NCCCN2C[C@H](C)C[C@H](C)C2)CC1 [7ff, N-(3-(cis-3,5-Dimethylpiperidin-1-yl)propyl)-1-((2-(4-chlorophenyl)-5-methyloxazol-4-yl)methyl)piperidine-4-carboxamide] | >635.0 1×10^−6 cm/s |
| Cc1cc(-c2nc(CN3CCC(C(=O)NCCCN4C[C@H](C)C[C@H](C)C4)CC3)co2)ccc1F [18a, N-(3-(cis-3,5-Dimethylpiperidin-1-yl)propyl)-1-((2-(4-fluoro-3-methylphenyl)oxazol-4-yl)methyl)piperidine-4-carboxamide] | 215.4 1×10^−6 cm/s |
| COc1cccc(Cl)c1-c1nc(CN2CCC(C(=O)NCCCN3C[C@H](C)C[C@H](C)C3)CC2)c(C)o1 [7uu, N-(3-(cis-3,5-Dimethylpiperidin-1-yl)propyl)-1-((2-(2-chloro-6-methoxyphenyl)-5-methyloxazol-4-yl)methyl)piperidine-4-carboxamide] | 51.0 1×10^−6 cm/s |
| Cc1oc(-c2c(C)c(C)c(C)c(C)c2C)nc1CN1CCC(C(=O)NCCCN2C[C@H](C)C[C@H](C)C2)CC1 [7cc, N-(3-(cis-3,5-Dimethylpiperidin-1-yl)propyl)-1-((2-(2,3,4,5,6-pentamethylphenyl)-5-methyloxazol-4-yl)methyl)piperidine-4-carboxamide] | 455.2 1×10^−6 cm/s |
| Cc1oc(-c2ccccc2Cl)nc1CN1CCC(C(=O)NCCCN2C[C@H](C)C[C@H](C)C2)CC1 [7dd, N-(3-(cis-3,5-Dimethylpiperidin-1-yl)propyl)-1-((2-(2-chlorophenyl)-5-methyloxazol-4-yl)methyl)piperidine-4-carboxamide] | 352.4 1×10^−6 cm/s |
| Cc1cccc(-c2nc(CN3CCC(C(=O)NCCCN4C[C@H](C)C[C@H](C)C4)CC3)c(C)o2)c1 [7t, N-(3-(cis-3,5-Dimethylpiperidin-1-yl)propyl)-1-((5-methyl-2-(mtolyl)oxazol-4-yl)methyl)piperidine-4-carboxamide] | 279.1 1×10^−6 cm/s |
| Cc1oc(-c2cccc(Cl)c2)nc1CN1CCC(C(=O)NCCCN2C[C@H](C)C[C@H](C)C2)CC1 [7ee, N-(3-(cis-3,5-Dimethylpiperidin-1-yl)propyl)-1-((2-(3-chlorophenyl)-5-methyloxazol-4-yl)methyl)piperidine-4-carboxamide] | 615.1 1×10^−6 cm/s |
| Cc1oc(-c2c(F)cccc2F)nc1CN1CCC(C(=O)NCCCN2C[C@H](C)C[C@H](C)C2)CC1 [7jj, N-(3-(cis-3,5-Dimethylpiperidin-1-yl)propyl)-1-((2-(2,6-difluorophenyl)-5-methyloxazol-4-yl)methyl)piperidine-4-carboxamide] | 82.4 1×10^−6 cm/s |
| CCCN(CCC)CCNC(=O)C1CCN(Cc2nc(-c3ccccc3C)oc2C)CC1 [7p, N-(2-(Dipropylamino)ethyl)-1-((5-methyl-2-(o-tolyl)oxazol-4-yl)-methyl)piperidine-4-carboxamide] | 913.1 1×10^−6 cm/s |
| Cc1ccccc1-c1nc(CN2CCC(C(=O)N3CCN(CCN(C)C)CC3)CC2)c(C)o1 [7s, (4-(2-(Dimethylamino)ethyl)piperazin-1-yl)(1-((5-methyl-2-(otolyl)oxazol-4-yl)methyl)piperidin-4-yl)methanone] | 14 1×10^−6 cm/s |
